These results are taken from patent publication US8420653B2, “Pyrimidine compounds and their uses” (Orchid Chemicals & Pharmaceuticals Limited, priority 2008, dated 2013).

In assay [1] the target is T1, purified recombinant COX-2 (Homo sapiens, UniProt P35354).
T1 sequence (P35354 18-604): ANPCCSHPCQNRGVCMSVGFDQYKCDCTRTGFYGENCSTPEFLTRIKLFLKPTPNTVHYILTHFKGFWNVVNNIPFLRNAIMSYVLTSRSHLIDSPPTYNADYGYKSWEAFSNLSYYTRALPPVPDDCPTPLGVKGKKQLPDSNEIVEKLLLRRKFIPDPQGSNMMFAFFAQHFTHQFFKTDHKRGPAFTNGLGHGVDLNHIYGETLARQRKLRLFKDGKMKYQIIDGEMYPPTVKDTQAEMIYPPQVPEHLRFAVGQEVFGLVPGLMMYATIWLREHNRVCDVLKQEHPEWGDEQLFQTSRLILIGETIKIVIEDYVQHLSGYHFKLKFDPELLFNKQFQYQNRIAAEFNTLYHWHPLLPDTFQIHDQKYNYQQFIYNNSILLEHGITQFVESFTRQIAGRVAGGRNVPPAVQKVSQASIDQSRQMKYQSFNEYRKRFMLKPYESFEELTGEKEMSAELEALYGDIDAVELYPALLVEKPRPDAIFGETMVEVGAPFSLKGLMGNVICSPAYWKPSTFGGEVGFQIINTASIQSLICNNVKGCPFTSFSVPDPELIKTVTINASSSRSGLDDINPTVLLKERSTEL
Nature of the assay: COX-2 enzyme based assay. The class given is biochemical. Particulars: for inhibition at 10 µM: read-out: % Inhibition in rEnzyme Assay COX-2; for COX2 at 10 μm: Table XVa summary. The procedure:
COX-1 and COX-2 enzyme based assays were carried out to check the inhibitory potential of the test compounds on the production of prostaglandin by purified recombinant COX-1/COX-2 enzyme (Proc. Nat. Acad. Sci. USA, 88, 2692-2696, 1991; J. Clin. Immunoassay 15, 116-120, 1992). In this assay, the potential of the test compound to inhibit the production of prostaglandin either by COX-1 or COX-2 from arachidonic acid (substrate) was measured. This was an enzyme based in-vitro assay to evaluate selective COX inhibition with good reproducibility.
Arachidonic acid was converted to PGH2 (Intermediate product) by COX1/COX-2 in the presence or absence of the test compound. The reaction was carried out at 37° C. and after 2 minutes it was stopped by adding 1M HCl. Intermediate product PGH2 was converted to a stable prostanoid product PGF2α by SnCl2 reduction. The amount of PGF2α produced in the reaction was inversely proportional to the COX inhibitory potential of the test compound. The prostanoid product was quantified via enzyme immunoassay (EIA) using a broadly specific antibody that binds to all the major forms of prostaglandin, using Cayman ELISA kit as per the procedure outlined by the manufacturer (Cayman Chemicals, Ann Arbor, USA).

Assay [2] deals with TNF-α. Nature of the assay: In vitro measurement of TNF-α in human PBMC. The class given is cell-based. Particulars: for inhibition at 1 µM: Conc. (1 μM); for inhibition at 10 µM: Conc. (10 μM). The procedure: In Vitro Measurement of TNF-α in Human Peripheral Blood Mononuclear Cells
This assay determines the effect of test compounds on the production of TNF a in human Peripheral Blood Mononuclear Cells (PBMC). Compounds were tested for their ability to inhibit the activity of TNF α in human PBMC. PBMC were isolated from blood (of healthy volunteers) using BD Vacutainer CPT™ (Cell preparation tube, BD Bio Science) and suspended in RPMI medium (Physiol. Res. 52, 593-598, 2003). The test compounds were pre-incubated with PBMC (0.5 million/incubation well) for 15 minutes at 37° C. and then stimulated with Lipopolysaccharide (Escherichia coli: B4; 1 μg/ml) for 18 hours at 37° C. in 5% CO2. The levels of TNF-α in the cell culture medium were estimated using enzyme-linked immunosorbent assay performed in a 96 well format as per the procedure of the manufacturer (Cayman Chemical, Ann Arbor, USA).

Assay [3] concerns TNF-α. Briefly: LPS induced sepsis for measurement of TNF-α inhibition in mice. Format: in vivo. Particulars: mice; for inhibition in vivo at 50 mg/kg: Mus musculus, 1.5 h, oral, serum 90 minutes after LPS; for TNF -α in vivo (mice): Table XVa summary, unit assumed. The procedure: LPS Induced Sepsis for Measurement of TNF-α Inhibition in Mice
The LPS induced sepsis model in mice was performed as described by Les sekut et al (J Lab Clin Med 1994; 124, 813-20). Female Swiss albino mice were selected and the body weights were equivalent within each group. The mice were fasted for 20 hours with free access to water. The mice were dosed orally with the test compound suspended in vehicle containing 0.5% Tween 80 in 0.25% Carboxy-methylcellulose sodium salt. The control mice were administered the vehicle alone. After 30 minutes of oral dosing, mice were injected with 500 μg of Lipopolysaccharide (Escherichia coli, LPS: B4 from Siga) in phosphate buffer saline solution into the intraperitoneal cavity of the mice. After 90 minutes of LPS administration mice were bled via retro-orbital sinus puncture. Blood samples were stored overnight at 4° C. Serum samples were collected by centrifuging the samples at 4000 rpm for 15 minutes at 4° C. Immediately the serum samples were analyzed for TNF-α levels using commercially available mouse TNF-α ELISA kit (Amersham Biosciences) and assay was performed by the manufacturer instruction.
ED50 Measurement of TNF Alpha Inhibition in Mice Sepsis Model

`CCOC(=O)C1CCN(c2nc(C(F)(F)F)nc(-c3ccc(F)cc3)c2-c2cccc(S(N)(=O)=O)c2)CC1` [Example 59, Ethyl-1-[5-(3-aminosulfonylphenyl)-6-(4-fluorophenyl)-2-(trifluoromethyl)pyrimidin-4-yl]piperidine-4-carboxylate]: in assay [1], the inhibition at 10 µM turned out to be 31% and the “COX2 at 10 μm” value is 31. For the same molecule, in the assay with TNF-α [2], the inhibition at 1 µM is 87% and the inhibition at 10 µM came to 92%. Further, in the assay with TNF-α [3], the inhibition in vivo at 50 mg/kg stood at 87.2% and the TNF -α in vivo (mice) was determined as 82%.
For `NS(=O)(=O)c1cccc(-c2c(-c3ccc(F)cc3)nc(C(F)(F)F)nc2-n2ccnc2)c1` [Example 80, 3-[4-(4-Fluorophenyl)-6-(1H-imidazol-1-yl)-2-(trifluoromethyl)pyrimidin-5-yl]benzenesulfonamide], in assay [1], the inhibition at 10 µM was determined as 20% and the “COX2 at 10 μm” value stood at 20. In addition, in the assay with TNF-α [2], the inhibition at 1 µM was 50% and 10 µM produced 78% inhibition. In the assay on TNF-α [3], this molecule showed an inhibition in vivo at 50 mg/kg of 82.8% and a TNF -α in vivo (mice) of 87%.

The inhibition is the relative decrease from the control value, in per cent. Broadly, the inhibition in vivo is the percentage by which the read-out fell short of the control. The low end stands for little suppression, the high end for strong suppression.
